ChEMBL document CHEMBL1201862, “PubChem BioAssay data set” (2004)
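The compound was tested at five concentrations on cells cultured in 96-well plates, with a 48-hour exposure period. The concentration for 50% growth inhibition is given as GI50.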 Calls of active or inactive are those of the source. Rule as the data show it: active = GI50 up to about 1.1 µM and inactive = higher.

Columns and labels:
Assay in all cases: NCI-60 cell line screen, 48 h
[1] = system: A498
[2] = system: ACHN
[3] = system: CCRF-CEM
[4] = system: HCT-116
[5] = system: HOP-62
[6] = system: HOP-92
[7] = system: IGROV-1
[8] = system: KM12
[9] = system: M14
[10] = system: NCI-H23
[11] = system: OVCAR-8
[12] = system: RXF 393
[13] = system: SF-295
[14] = system: SK-MEL-28
[15] = system: SK-MEL-2
[16] = system: SNB-75
[17] = system: SW-620
[18] = system: TK-10
[19] = system: U-251
[20] = system: UACC-62

Measured: GI50

CCCCc1c2cnccc2c(CCCC)c2c1[nH]c1ccccc12
inactive: [1] 15.5 µM | [2] 10 µM | [3] 9.38 µM | [4] 3.59 µM | [5] 3.85 µM | [6] 12.8 µM | [7] 12.4 µM | [8] 8.38 µM | [9] 15.7 µM | [10] 5.33 µM | [11] 12.9 µM | [12] 7.13 µM | [13] 7.19 µM | [14] 6.34 µM | [15] 12.6 µM | [16] 5.87 µM | [17] 12.9 µM | [18] 19.2 µM | [19] 12.8 µM | [20] 11.6 µM

O=C1N(C2CCCCC2)CC12CCCCC2
inactive: [1] > 100 µM | [2] > 100 µM | [3] > 100 µM | [4] > 100 µM | [5] > 100 µM | [6] > 100 µM | [7] > 100 µM | [9] > 100 µM | [10] > 100 µM | [11] > 100 µM | [12] > 100 µM | [14] > 100 µM | [15] > 100 µM | [16] > 100 µM | [17] > 100 µM | [18] > 100 µM | [19] > 100 µM | [20] > 100 µM

COc1cc(C2C(C(=O)NCc3ccccc3)=C(C)NC(C)=C2C(=O)NCc2ccccc2)ccc1O
inactive: [1] 84.9 µM | [2] 42.5 µM | [3] 26.3 µM | [4] 44.7 µM | [6] 31.4 µM | [7] 34.4 µM | [9] 34.4 µM | [10] 31.7 µM | [11] 38.3 µM | [12] 28.8 µM | [13] 46 µM | [14] 34.5 µM | [15] 22.3 µM | [16] 44.9 µM | [17] 37.5 µM | [18] 35.2 µM | [19] 28.6 µM | [20] 21.8 µM

CCOC(=O)C(NC(=O)N(C1=NCC(C)S1)C1CCCCC1)(OC)C(F)(F)F (stereo not given)
inactive: [1] 16.4 µM | [2] 31.2 µM | [3] 25.2 µM | [4] 31.6 µM | [5] 15.8 µM | [6] 46 µM | [8] 33 µM | [9] 51.2 µM | [10] 43.3 µM | [11] 70.5 µM | [12] 17.9 µM | [13] 49.8 µM | [14] 47.2 µM | [15] 34 µM | [16] 31 µM | [17] 35.2 µM | [18] 57.5 µM | [19] 22.6 µM | [20] 32.8 µM

COc1ccc(/N=C\c2cc(OC)c(OC)c(OC)c2)cc1
inactive: [1] > 100 µM | [2] 94 µM | [3] 57.5 µM | [4] > 100 µM | [5] > 100 µM | [6] > 100 µM | [7] > 100 µM | [8] > 100 µM | [10] > 100 µM | [11] > 100 µM | [12] > 100 µM | [14] > 100 µM | [15] > 100 µM | [16] > 100 µM | [17] 14.3 µM | [18] > 100 µM | [19] > 100 µM | [20] 23.9 µM

CC(C)C(=O)/C=C/c1ccc(Br)cc1
inactive: [1] 14.5 µM | [2] 12.7 µM | [3] 3.15 µM | [4] 6.14 µM | [6] 16.4 µM | [7] 19.2 µM | [8] 13.8 µM | [9] 17.9 µM | [10] 17.7 µM | [11] 23.2 µM | [12] 18.3 µM | [13] 15.5 µM | [14] 20.1 µM | [15] 16.1 µM | [16] 18.1 µM | [17] 5.51 µM | [18] 16.9 µM | [19] 10.9 µM | [20] 14.5 µM

O=CNCNCCO
inactive: [1] > 100 µM | [2] > 100 µM | [3] > 100 µM | [4] > 100 µM | [5] > 100 µM | [6] > 100 µM | [7] > 100 µM | [9] > 100 µM | [10] > 100 µM | [11] > 100 µM | [12] > 100 µM | [14] > 100 µM | [15] > 100 µM | [16] > 100 µM | [17] 46 µM | [18] > 100 µM | [19] > 100 µM | [20] 46.9 µM

COC(=O)Cc1c([C@H]2[C@H](CC(=O)OC)c3ccccc3N2C(=O)C(F)(F)F)[nH]c2ccccc12
inactive: [1] 90.2 µM | [2] 29.8 µM | [3] 14.6 µM | [4] 15.5 µM | [5] 29 µM | [6] 32.3 µM | [7] 2.83 µM | [10] 25.2 µM | [11] 32.5 µM | [12] 20 µM | [13] 18.1 µM | [14] 34.5 µM | [15] 25 µM | [16] 29.2 µM | [17] 32.4 µM | [18] 51.4 µM | [19] 13.6 µM | [20] 13.6 µM

COc1ccc(N(C)C(=O)N(C)c2ccc([N+](=O)[O-])cc2)cc1
inactive: [1] 66.4 µM | [2] > 100 µM | [3] 23.9 µM | [4] 27.4 µM | [5] 39.4 µM | [6] 25.5 µM | [7] 43.2 µM | [8] 18.8 µM | [9] 34 µM | [10] 34.6 µM | [11] 71 µM | [12] 14.3 µM | [14] 50.2 µM | [15] 14.5 µM | [16] 29.6 µM | [17] 23.3 µM | [18] 10.5 µM | [19] 30.4 µM | [20] 33.9 µM

COc1ccc(C(C2C(=O)N(C)C(=O)N(C)C2=O)C(F)(F)C(=O)N(C)C)cc1 (stereo not given)
inactive: [1] > 100 µM | [2] > 100 µM | [3] > 100 µM | [4] > 100 µM | [5] > 100 µM | [6] > 100 µM | [8] > 100 µM | [9] > 100 µM | [10] > 100 µM | [11] > 100 µM | [12] > 100 µM | [13] > 100 µM | [14] > 100 µM | [15] > 100 µM | [16] > 100 µM | [17] > 100 µM | [18] > 100 µM | [19] > 100 µM | [20] > 100 µM

COc1ccc(-c2csc3c2[N+]2(C)C=CC=C2C3N2CCCC2)cc1 (stereo not given)
inactive: [1] 31.1 µM | [2] 44.8 µM | [3] 28.3 µM | [4] 33 µM | [5] 27.2 µM | [6] 18.7 µM | [7] 11.2 µM | [8] 15.3 µM | [9] 29.8 µM | [10] 10.6 µM | [11] 17.5 µM | [12] 21.3 µM | [13] 10.6 µM | [15] 10.6 µM | [16] 4.12 µM | [17] 24.4 µM | [18] 48.9 µM | [19] 7.01 µM | [20] 15.5 µM
